Measured values as given in ChEMBL document CHEMBL3425491, “Development of novel ACK1/TNK2 inhibitors using a fragment-based approach” (J Med Chem, 2015).
In brackets after ≈: the same amount, converted by molar mass. Each block holds one molecule with its values, some of them ahead of it. Activity calls are given as the source filed them. The rule behind the calls is not given here.

Columns and labels:
Activated CDC42 kinase 1 [1] = target: T1, Activated CDC42 kinase 1 (Homo sapiens, UniProt Q07912); test: Inhibition of human ACK1 kinase activity using biotinylated ATGRYYAMKIL - AKT peptide substrate assessed as phosphorylation at 10 uM by ELISA; type: single protein
Target sequence in this assay (Q07912 whole entry, looked up): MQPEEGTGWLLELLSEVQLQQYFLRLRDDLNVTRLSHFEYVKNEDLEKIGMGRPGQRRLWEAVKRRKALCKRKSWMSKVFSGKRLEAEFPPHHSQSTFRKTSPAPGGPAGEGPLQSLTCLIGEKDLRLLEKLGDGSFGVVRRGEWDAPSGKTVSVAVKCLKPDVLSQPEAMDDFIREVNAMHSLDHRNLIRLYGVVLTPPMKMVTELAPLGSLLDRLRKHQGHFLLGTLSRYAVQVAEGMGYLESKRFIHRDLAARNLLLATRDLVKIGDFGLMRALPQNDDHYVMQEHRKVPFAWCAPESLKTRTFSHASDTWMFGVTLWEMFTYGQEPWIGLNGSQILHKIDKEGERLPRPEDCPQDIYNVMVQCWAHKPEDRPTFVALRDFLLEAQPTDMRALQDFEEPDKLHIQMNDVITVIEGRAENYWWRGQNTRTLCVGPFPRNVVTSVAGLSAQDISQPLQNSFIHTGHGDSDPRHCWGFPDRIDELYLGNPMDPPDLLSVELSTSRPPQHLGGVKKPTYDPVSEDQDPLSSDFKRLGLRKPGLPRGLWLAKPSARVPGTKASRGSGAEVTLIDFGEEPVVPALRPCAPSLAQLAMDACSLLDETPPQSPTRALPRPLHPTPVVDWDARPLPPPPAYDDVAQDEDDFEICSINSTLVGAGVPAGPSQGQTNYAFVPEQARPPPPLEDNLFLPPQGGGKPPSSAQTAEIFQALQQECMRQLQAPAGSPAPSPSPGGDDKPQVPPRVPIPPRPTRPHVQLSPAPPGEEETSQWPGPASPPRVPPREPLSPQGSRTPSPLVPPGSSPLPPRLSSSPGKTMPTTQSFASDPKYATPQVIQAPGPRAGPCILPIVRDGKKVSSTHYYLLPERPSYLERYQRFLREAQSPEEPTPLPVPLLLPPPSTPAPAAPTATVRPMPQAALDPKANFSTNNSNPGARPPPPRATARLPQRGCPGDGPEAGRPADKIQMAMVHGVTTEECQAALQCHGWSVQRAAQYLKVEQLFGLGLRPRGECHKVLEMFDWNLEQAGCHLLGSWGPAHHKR

[2] = target: Vascular endothelial growth factor receptor 2 (Homo sapiens) (UniProt P35968); test: Inhibition of human KDR/VEGFR2 using poly[Glu:Tyr] (4:1) peptide substrate at 1 uM by 33P Hotspot assay
[3] = target: Ephrin type-A receptor 2 (Homo sapiens) (UniProt P29317); test: Inhibition of human EPHA2 using poly[Glu:Tyr] (4:1) peptide substrate at 1 uM by 33P Hotspot assay
[4] = target: Platelet-derived growth factor receptor alpha (Homo sapiens) (UniProt P16234); test: Inhibition of human PDGFRalpha using poly[Glu:Tyr] (4:1) peptide substrate at 1 uM by 33P Hotspot assay
LAPC4 = test: Anticancer activity against human LAPC4 cells assessed as inhibition of cell growth up to 10 uM after 72 hrs by trypan blue exclusion assay; type: functional, cell-based
[5] = target: Epidermal growth factor receptor (Homo sapiens) (UniProt P00533); test: Inhibition of human EGFR using poly[Glu:Tyr] (4:1) peptide substrate at 1 uM by 33P Hotspot assay
[6] = target: T2, Fibroblast growth factor receptor 1 (Homo sapiens, UniProt P11362); test: Inhibition of human FGFR1 using KKKSPGEYVNIEFG peptide substrate at 1 uM by 33P Hotspot assay
[7] = target: Serine/threonine-protein kinase Chk1 (Homo sapiens) (UniProt O14757); test: Inhibition of human CHK1 using KKKVSRSGLYRSPSMPENLNRPR peptide substrate at 1 uM by 33P Hotspot assay
[8] = target: Ribosomal protein S6 kinase beta-1 (Homo sapiens) (UniProt P23443); test: Inhibition of human p70S6K/RPS6KB1 using KKRNRTLTK peptide substrate at 1 uM by 33P Hotspot assay
[9] = target: Tyrosine-protein kinase ABL1 (Homo sapiens, UniProt P00519); test: Inhibition of human ABL1 using EAIYAAPFAKKK peptide substrate by 33P Hotspot assay
[10] = target: T2, Fibroblast growth factor receptor 1; test: Inhibition of human FGFR1 using KKKSPGEYVNIEFG peptide substrate by 33P Hotspot assay
[11] = target: T3, Tyrosine-protein kinase JAK2 (Homo sapiens, UniProt O60674); test: Inhibition of human JAK2 using poly[Glu:Tyr] (4:1) peptide substrate at 1 uM by 33P Hotspot assay
[12] = target: Serine/threonine-protein kinase pim-1 (Homo sapiens) (UniProt P11309); test: Inhibition of human PIM1 using KKRNRTLTK peptide substrate at 1 uM by 33P Hotspot assay
[13] = target: Tyrosine-protein kinase receptor UFO (Homo sapiens) (UniProt P30530); test: Inhibition of human AXL using EAIYAAPFAKKK peptide substrate at 1 uM by 33P Hotspot assay
[14] = target: Insulin receptor (Homo sapiens) (UniProt P06213); test: Inhibition of human IR using poly[Glu:Tyr] (4:1) peptide substrate at 1 uM by 33P Hotspot assay
[15] = target: RAF proto-oncogene serine/threonine-protein kinase (Homo sapiens) (UniProt P04049); test: Inhibition of human RAF1 using MEK1 (K97R) peptide substrate at 1 uM by 33P Hotspot assay
[16] = target: Tyrosine-protein kinase CSK (Homo sapiens) (UniProt P41240); test: Inhibition of human CSK using poly[Glu:Tyr] (4:1) peptide substrate at 1 uM by 33P Hotspot assay
[17] = target: Mitogen-activated protein kinase kinase kinase 8 (Homo sapiens) (UniProt P41279); test: Inhibition of human COT1/MAP3K8 using MEK1 (K97R) substrate at 1 uM by 33P Hotspot assay
Plasma = test: Half life in human plasma; type: ADME, cell-free
[18] = target: Angiopoietin-1 receptor (Homo sapiens) (UniProt Q02763); test: Inhibition of human TIE2/TEK using poly[Glu:Tyr] (4:1) peptide substrate at 1 uM by 33P Hotspot assay
[19] = target: Glycogen synthase kinase-3 alpha (Homo sapiens) (UniProt P49840); settings: at 1 µM
cells = settings: Homo sapiens, VCaP, 72 h
[20] = target: Mitogen-activated protein kinase 3 (Homo sapiens) (UniProt P27361); test: Inhibition of human ERK1 using myelin basic protein substrate at 1 uM by 33P Hotspot assay
[21] = target: T4, Non-receptor tyrosine-protein kinase TYK2 (Homo sapiens, UniProt P29597); test: Inhibition of human TYK2 using KKSRGDYMTMQIG peptide substrate at 1 uM by 33P Hotspot assay
[22] = target: Tyrosine-protein kinase BTK (Homo sapiens) (UniProt Q06187); test: Inhibition of human BTK using […] peptide substrate at 1 uM by 33P Hotspot assay
[23] = target: Serine/threonine-protein kinase Sgk1 (Homo sapiens) (UniProt O00141); test: Inhibition of human SGK1 using KGSGSGRPRTSSFAEG peptide substrate at 1 uM by 33P Hotspot assay
[24] = target: Inhibitor of nuclear factor kappa-B kinase subunit alpha (Homo sapiens) (UniProt O15111); test: Inhibition of human IKKa/CHUK using KKKKERLLDDRHDSGLDSMKDEE peptide substrate at 1 uM by 33P Hotspot assay
LNCaP = test: cells; settings: Homo sapiens, 72 h
[25] = target: Wee1-like protein kinase (Homo sapiens) (UniProt P30291); test: Inhibition of human WEE1 using myelin basic protein substrate at 1 uM by 33P Hotspot assay
[26] = target: Hepatocyte growth factor receptor (Homo sapiens) (UniProt P08581); test: Inhibition of human c-MET using KKKSPGEYVNIEFG peptide substrate at 1 uM by 33P Hotspot assay
[27] = target: Tyrosine-protein kinase Lck (Homo sapiens, UniProt P06239)
[28] = target: Tyrosine-protein kinase FRK (Homo sapiens) (UniProt P42685); test: Inhibition of human FRK/PTK5 using poly[Glu:Tyr] (4:1) peptide substrate at 1 uM by 33P Hotspot assay
[29] = target: Serine/threonine-protein kinase TBK1 (Homo sapiens) (UniProt Q9UHD2); test: Inhibition of human TBK1 using KRRRAL[pS]VASLPGL peptide substrate at 1 uM by 33P Hotspot assay
[30] = target: Serine/threonine-protein kinase Chk1 (Homo sapiens, UniProt O14757); test: Inhibition of human CHK1 using KKKVSRSGLYRSPSMPENLNRPR peptide substrate by 33P Hotspot assay
[31] = target: Proto-oncogene tyrosine-protein kinase ROS (Homo sapiens, UniProt P08922); test: Inhibition of human ROS/ROS1 using KKKSPGEYVNIEFG peptide substrate by 33P Hotspot assay
[32] = target: T4, Non-receptor tyrosine-protein kinase TYK2; test: Inhibition of human TYK2 using KKSRGDYMTMQIG peptide substrate by 33P Hotspot assay
[33] = Solubility in PBS with 10% DMSO; type: physicochemical; settings: buffer
[34] = target: T3, Tyrosine-protein kinase JAK2; test: Inhibition of human JAK2 using poly[Glu:Tyr] (4:1) peptide substrate by 33P Hotspot assay
[35] = target: High affinity nerve growth factor receptor (Homo sapiens) (UniProt P04629); test: Inhibition of human TRKA using poly[Glu:Tyr] (4:1) peptide substrate at 1 uM by 33P Hotspot assay
[36] = target: Receptor tyrosine-protein kinase erbB-2 (Homo sapiens) (UniProt P04626); test: Inhibition of human ERBB2/HER2 using poly[Glu:Tyr] (4:1) peptide substrate at 1 uM by 33P Hotspot assay
[37] = target: Serine/threonine-protein kinase mTOR (Homo sapiens) (UniProt P42345); test: Inhibition of human mTOR/FRAP1 using 4EBP1 peptide substrate at 1 uM by 33P Hotspot assay
[38] = target: RAC-alpha serine/threonine-protein kinase (Homo sapiens) (UniProt P31749); test: Inhibition of human AKT1 using KGSGSGRPRTSSFAEG peptide substrate at 1 uM by 33P Hotspot assay
Activated CDC42 kinase 1 [39] = target: T1, Activated CDC42 kinase 1; test: Inhibition of ACK1 kinase (unknown origin)

T4 sequence (P29597 whole entry): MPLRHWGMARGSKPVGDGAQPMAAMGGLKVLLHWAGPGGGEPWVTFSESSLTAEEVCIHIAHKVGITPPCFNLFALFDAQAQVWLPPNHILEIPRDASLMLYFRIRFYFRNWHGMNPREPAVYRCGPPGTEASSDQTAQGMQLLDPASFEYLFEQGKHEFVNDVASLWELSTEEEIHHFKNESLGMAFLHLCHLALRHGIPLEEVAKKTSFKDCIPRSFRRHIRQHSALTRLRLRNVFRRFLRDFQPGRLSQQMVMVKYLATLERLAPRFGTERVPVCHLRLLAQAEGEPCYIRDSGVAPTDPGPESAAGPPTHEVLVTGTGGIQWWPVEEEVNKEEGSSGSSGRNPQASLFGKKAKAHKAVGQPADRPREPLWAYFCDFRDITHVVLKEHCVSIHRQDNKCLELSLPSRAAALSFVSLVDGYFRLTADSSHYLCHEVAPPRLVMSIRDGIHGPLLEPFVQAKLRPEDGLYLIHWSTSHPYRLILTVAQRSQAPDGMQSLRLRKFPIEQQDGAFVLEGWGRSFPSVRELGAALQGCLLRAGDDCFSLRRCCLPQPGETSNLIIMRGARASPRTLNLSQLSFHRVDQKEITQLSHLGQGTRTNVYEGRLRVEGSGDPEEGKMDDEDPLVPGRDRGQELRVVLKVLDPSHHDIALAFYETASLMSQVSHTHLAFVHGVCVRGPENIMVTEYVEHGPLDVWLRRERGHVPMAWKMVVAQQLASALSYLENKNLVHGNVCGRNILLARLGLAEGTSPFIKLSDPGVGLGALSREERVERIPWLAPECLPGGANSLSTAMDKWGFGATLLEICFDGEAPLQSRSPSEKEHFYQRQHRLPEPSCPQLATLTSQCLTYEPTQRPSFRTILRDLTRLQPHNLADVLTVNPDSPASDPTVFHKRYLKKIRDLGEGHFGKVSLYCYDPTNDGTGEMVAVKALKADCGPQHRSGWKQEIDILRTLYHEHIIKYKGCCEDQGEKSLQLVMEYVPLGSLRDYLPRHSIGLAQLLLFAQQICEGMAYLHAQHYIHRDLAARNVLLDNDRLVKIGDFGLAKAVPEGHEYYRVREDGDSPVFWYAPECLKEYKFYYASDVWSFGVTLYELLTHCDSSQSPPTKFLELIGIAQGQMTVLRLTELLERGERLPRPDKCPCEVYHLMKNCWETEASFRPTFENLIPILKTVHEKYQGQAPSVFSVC
T3 sequence (O60674 whole entry): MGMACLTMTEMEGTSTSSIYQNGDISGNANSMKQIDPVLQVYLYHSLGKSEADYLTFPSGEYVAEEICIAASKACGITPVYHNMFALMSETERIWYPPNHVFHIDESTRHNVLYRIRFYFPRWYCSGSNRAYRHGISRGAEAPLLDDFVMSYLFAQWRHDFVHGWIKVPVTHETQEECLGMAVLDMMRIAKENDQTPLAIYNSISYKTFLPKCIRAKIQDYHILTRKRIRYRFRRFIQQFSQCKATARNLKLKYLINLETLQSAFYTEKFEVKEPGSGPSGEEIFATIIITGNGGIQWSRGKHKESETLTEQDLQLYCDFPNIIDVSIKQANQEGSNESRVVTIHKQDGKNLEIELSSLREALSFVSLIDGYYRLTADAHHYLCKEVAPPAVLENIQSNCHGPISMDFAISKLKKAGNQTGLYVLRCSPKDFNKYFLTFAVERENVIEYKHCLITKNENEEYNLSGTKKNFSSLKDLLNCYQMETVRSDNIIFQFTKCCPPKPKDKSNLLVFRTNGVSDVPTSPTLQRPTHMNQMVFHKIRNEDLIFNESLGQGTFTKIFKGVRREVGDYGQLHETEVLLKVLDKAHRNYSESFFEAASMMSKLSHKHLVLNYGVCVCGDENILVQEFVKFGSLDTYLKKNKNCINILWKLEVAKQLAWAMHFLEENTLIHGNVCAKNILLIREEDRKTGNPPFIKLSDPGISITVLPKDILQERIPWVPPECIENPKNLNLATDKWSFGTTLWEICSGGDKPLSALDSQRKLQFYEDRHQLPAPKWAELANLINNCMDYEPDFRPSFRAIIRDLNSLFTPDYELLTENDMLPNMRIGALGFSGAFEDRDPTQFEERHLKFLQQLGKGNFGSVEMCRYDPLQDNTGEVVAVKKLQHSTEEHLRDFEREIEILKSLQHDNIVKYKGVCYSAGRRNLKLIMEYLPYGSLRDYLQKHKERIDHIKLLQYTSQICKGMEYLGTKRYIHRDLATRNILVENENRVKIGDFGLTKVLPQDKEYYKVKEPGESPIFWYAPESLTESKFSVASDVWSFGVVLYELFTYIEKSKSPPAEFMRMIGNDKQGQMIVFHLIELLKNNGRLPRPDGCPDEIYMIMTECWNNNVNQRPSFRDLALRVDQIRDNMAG
Sequence of Receptor tyrosine-protein kinase erbB-2 (Homo sapiens) (P04626 whole entry): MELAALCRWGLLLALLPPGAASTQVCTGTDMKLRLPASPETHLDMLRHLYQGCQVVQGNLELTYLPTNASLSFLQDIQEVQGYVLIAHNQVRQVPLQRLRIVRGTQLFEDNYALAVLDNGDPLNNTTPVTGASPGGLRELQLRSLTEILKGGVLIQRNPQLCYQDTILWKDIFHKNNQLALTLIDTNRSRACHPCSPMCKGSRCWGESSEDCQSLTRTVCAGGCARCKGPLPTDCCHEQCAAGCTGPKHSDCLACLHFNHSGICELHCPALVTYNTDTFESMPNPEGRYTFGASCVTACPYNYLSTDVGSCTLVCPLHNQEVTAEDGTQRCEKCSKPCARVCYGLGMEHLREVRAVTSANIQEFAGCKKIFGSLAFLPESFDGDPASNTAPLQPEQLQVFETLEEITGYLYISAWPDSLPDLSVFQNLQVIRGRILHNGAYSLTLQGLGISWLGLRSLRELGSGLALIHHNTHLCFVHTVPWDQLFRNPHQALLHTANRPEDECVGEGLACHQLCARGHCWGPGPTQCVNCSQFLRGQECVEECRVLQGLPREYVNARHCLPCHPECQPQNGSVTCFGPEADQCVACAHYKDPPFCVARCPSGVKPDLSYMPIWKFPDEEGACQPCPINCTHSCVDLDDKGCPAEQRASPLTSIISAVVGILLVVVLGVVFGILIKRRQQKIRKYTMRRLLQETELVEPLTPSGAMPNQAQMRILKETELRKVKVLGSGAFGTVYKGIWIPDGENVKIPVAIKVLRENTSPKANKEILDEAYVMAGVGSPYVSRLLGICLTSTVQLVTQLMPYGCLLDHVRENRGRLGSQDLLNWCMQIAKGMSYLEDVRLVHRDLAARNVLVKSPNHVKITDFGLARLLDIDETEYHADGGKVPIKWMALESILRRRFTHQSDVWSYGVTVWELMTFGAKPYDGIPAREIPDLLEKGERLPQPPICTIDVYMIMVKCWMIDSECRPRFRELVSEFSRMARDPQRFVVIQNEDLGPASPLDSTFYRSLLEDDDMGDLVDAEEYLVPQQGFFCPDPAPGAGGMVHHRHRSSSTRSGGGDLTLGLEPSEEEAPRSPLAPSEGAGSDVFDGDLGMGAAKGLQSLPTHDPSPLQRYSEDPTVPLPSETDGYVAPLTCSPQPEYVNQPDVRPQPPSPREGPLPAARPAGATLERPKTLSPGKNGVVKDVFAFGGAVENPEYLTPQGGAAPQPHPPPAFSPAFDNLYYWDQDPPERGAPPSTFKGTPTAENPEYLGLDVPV
Sequence of Tyrosine-protein kinase Lck (P06239 whole entry): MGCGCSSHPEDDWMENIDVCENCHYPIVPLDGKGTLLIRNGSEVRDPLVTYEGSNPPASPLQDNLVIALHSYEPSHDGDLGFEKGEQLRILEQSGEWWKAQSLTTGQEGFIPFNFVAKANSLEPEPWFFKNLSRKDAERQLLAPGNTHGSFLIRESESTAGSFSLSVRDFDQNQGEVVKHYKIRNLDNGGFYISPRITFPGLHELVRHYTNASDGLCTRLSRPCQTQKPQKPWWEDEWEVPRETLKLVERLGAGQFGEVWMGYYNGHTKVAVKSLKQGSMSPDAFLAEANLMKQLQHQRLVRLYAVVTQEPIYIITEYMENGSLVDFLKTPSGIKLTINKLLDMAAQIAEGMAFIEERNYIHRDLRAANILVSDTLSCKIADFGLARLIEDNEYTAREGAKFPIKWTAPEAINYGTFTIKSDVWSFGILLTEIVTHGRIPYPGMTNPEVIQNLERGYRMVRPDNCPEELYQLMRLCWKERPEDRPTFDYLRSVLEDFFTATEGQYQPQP

Structure (SMILES): Oc1ccc(Nc2ncc(Cl)c(NCC3CCCO3)n2)cc1 (centres undefined)
inhibition (Activated CDC42 kinase 1 [1]): 65%

Structure (SMILES): CN1CCN(c2ccc(Nc3ncc(Cl)c(NCC4CCCO4)n3)cc2)CC1 (racemic)
inhibition (Activated CDC42 kinase 1 [1]): 90.5%

Structure (SMILES): O=C(Nc1c(F)cccc1Cl)c1cnc(Nc2ccc(C3CCNCC3)cc2)nc1NCC1CCCO1 (racemic)
inhibition (Activated CDC42 kinase 1 [1]): 97%

Structure (SMILES): CN1CCN(c2ccc(Nc3ncc(Cl)c(NC[C@H]4CCCO4)n3)cc2)CC1
inhibition [2]: 67.3%
inhibition [3]: 31.9%
inhibition [4]: 42.7%
inhibition (LAPC4): Active
inhibition [5]: -2.8%
inhibition [6]: 86.4%
inhibition [7]: 84.8%
inhibition [8]: 24.1%
IC50 [9]: 206 nM
IC50 [10]: 160 nM
inhibition [11]: 98.6%
inhibition [12]: 3.6%
inhibition [13]: 75.9%
inhibition [14]: 46.6%
inhibition [15]: -0.8%
inhibition [16]: 26.3%
inhibition [17]: -7.7%
t1/2 (Plasma): > 6 h
inhibition [18]: 32%
inhibition [19]: 5.1%
IC50 (cells): 2000 nM
inhibition [20]: 1.9%
inhibition [21]: 98.9%
inhibition [22]: 45.1%
inhibition [23]: 26%
inhibition [24]: 0.4%
IC50 (LNCaP): 1800 nM
inhibition [25]: 12.4%
inhibition [26]: 23.1%
IC50 [27]: 136 nM
inhibition [28]: 41.3%
inhibition [29]: 71.8%
IC50 [30]: 154 nM
IC50 [31]: 124 nM
IC50 [32]: 5 nM
solubility [33]: 1000 µg/mL (≈ 2480 µM)
IC50 [34]: 6 nM
inhibition [35]: 63.2%
inhibition [36]: -1.1%
inhibition [37]: -5.6%
inhibition [38]: 4.7%

Structure (SMILES): CN1CCN(c2ccc(Nc3ncc(Cl)c(NC[C@@H]4CCCO4)n3)cc2)CC1
inhibition (LAPC4): Active
t1/2 (Plasma): > 6 h
IC50 (cells): 4000 nM
IC50 (Activated CDC42 kinase 1 [39]): 82 nM
solubility [33]: 900 µg/mL (≈ 2230 µM)

Structure (SMILES): Clc1cnc(Nc2ccc(N3CCNCC3)cc2)nc1NCC1CCCO1 (racemic)
inhibition (Activated CDC42 kinase 1 [1]): 82%

Structure (SMILES): O=C(Nc1c(F)cccc1Cl)c1cnc(Nc2ccc(O)c(F)c2)nc1NCC1CCCO1 (centres undefined)
inhibition (Activated CDC42 kinase 1 [1]): 66%

Structure (SMILES): CN1CCN(c2ccc(Nc3ncc(C(=O)Nc4c(F)cccc4Cl)c(NCC4CCCO4)n3)cc2)CC1 (centres undefined)
inhibition (Activated CDC42 kinase 1 [1]): 97%

Other lines, results leading:

inhibition (Activated CDC42 kinase 1 [1]): 84.5%
Structure (SMILES): Brc1cnc(Nc2ccc(C3CCNCC3)cc2)nc1NCC1CCCO1 (racemic)

inhibition (Activated CDC42 kinase 1 [1]): 67%
Structure (SMILES): COc1ccc(Nc2ncc(Br)c(NCC3CCCO3)n2)cc1 (centres undefined)

inhibition (Activated CDC42 kinase 1 [1]): 74%
Structure (SMILES): O=C(O)CCc1ccc(Nc2ncc(Cl)c(NCC3CCCO3)n2)cc1 (centres undefined)

inhibition (Activated CDC42 kinase 1 [1]): 60%
Structure (SMILES): O=C(O)CCCc1ccc(Nc2ncc(Cl)c(NCC3CCCO3)n2)cc1 (centres undefined)

inhibition (Activated CDC42 kinase 1 [1]): 76.5%
Structure (SMILES): O=C(O)Cc1ccc(Nc2ncc(Cl)c(NCC3CCCO3)n2)cc1 (centres undefined)

inhibition (Activated CDC42 kinase 1 [1]): 89%
Structure (SMILES): Brc1cnc(Nc2ccc(N3CCOCC3)cc2)nc1NCC1CCCO1 (racemic)

inhibition (Activated CDC42 kinase 1 [1]): 85%
Structure (SMILES): O=C(O)C1CCN(c2ccc(Nc3ncc(Br)c(NCC4CCCO4)n3)cc2)CC1 (racemic)
